How the values were obtained:
Test in all cases: relative viability (nuclei count vs DMSO), 5 days (fraction); higher = more cells survive
A-427 = test system: A-427
Procedure, shortened: (§1)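 Dosing by pin tool came one day after lung cancer cell lines were seeded in 1536-well plates, using either one drug or a fixed anchor-drug dose plus five library-drug doses (not always all listed) in √10 steps. After 5 days, nuclei were counted on 4× images. Relative viability is treated-well nuclei count divided by vehicle-well nuclei count, and values are medians of duplicate plates.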

COR-L 105 = test system: COR-L 105
Procedure, shortened: as §1

ChaGo-K-1 = test system: ChaGo-K-1
Procedure, shortened: as §1

EKVX = test system: EKVX
Procedure, shortened: as §1

EMC-BAC-2 = test system: EMC-BAC-2
Procedure, shortened: as §1

EPLC-272H = test system: EPLC-272H
Procedure, shortened: as §1

HARA = test system: HARA
Procedure, shortened: as §1

HCC-44 = test system: HCC-44
Procedure, shortened: as §1

LU99A = test system: LU99A
Procedure, shortened: as §1

NCI-H1650 = test system: NCI-H1650
Procedure, shortened: as §1

NCI-H1734 = test system: NCI-H1734
Procedure, shortened: as §1

NCI-H1755 = test system: NCI-H1755
Procedure, shortened: as §1

NCI-H1792 = test system: NCI-H1792
Procedure, shortened: as §1

NCI-H1993 = test system: NCI-H1993
Procedure, shortened: as §1

NCI-H2405 = test system: NCI-H2405
Procedure, shortened: as §1

NCI-H460 = test system: NCI-H460
Procedure, shortened: as §1

NCI-H596 = test system: NCI-H596
Procedure, shortened: as §1

NCI-H647 = test system: NCI-H647
Procedure, shortened: as §1

RERF-LC-KJ = test system: RERF-LC-KJ
Procedure, shortened: as §1

Compound: CN1CCN(CCOc2cc(OC3CCOCC3)c3c(Nc4c(Cl)ccc5c4OCO5)ncnc3c2)CC1 [Saracatinib] + CC(C)C[C@H](NC(=O)[C@H](Cc1ccccc1)NC(=O)c1cnccn1)B(O)O [Bortezomib] (partner 0.002 µM)
- relative viability (A-427; first compound 0.02 µM): 1.03
- relative viability (A-427; first compound 0.2 µM): 0.804
- relative viability (A-427; first compound 0.6325 µM): 0.871
- relative viability (A-427; first compound 2 µM): 0.981
- relative viability (COR-L 105; first compound 0.02 µM): 1.11
- relative viability (COR-L 105; first compound 0.2 µM): 0.699
- relative viability (COR-L 105; first compound 0.6325 µM): 0.707
- relative viability (COR-L 105; first compound 2 µM): 0.432
- relative viability (ChaGo-K-1; first compound 0.02 µM): 1.1
- relative viability (ChaGo-K-1; first compound 0.2 µM): 0.866
- relative viability (ChaGo-K-1; first compound 0.6325 µM): 1.05
- relative viability (ChaGo-K-1; first compound 2 µM): 0.79
- relative viability (EKVX; first compound 0.02 µM): 0.961
- relative viability (EKVX; first compound 0.2 µM): 0.861
- relative viability (EKVX; first compound 0.6325 µM): 1.16
- relative viability (EKVX; first compound 2 µM): 0.347
- relative viability (EMC-BAC-2; first compound 0.02 µM): 1.02
- relative viability (EMC-BAC-2; first compound 0.2 µM): 1
- relative viability (EMC-BAC-2; first compound 0.6325 µM): 1.19
- relative viability (EMC-BAC-2; first compound 2 µM): 1.03
- relative viability (EPLC-272H; first compound 0.02 µM): 0.812
- relative viability (EPLC-272H; first compound 0.2 µM): 0.786
- relative viability (EPLC-272H; first compound 0.6325 µM): 1.2
- relative viability (EPLC-272H; first compound 2 µM): 0.932
- relative viability (HARA; first compound 0.02 µM): 1.12
- relative viability (HARA; first compound 0.6325 µM): 1.08
- relative viability (HARA; first compound 2 µM): 0.602
- relative viability (HCC-44; first compound 0.02 µM): 0.917
- relative viability (HCC-44; first compound 0.2 µM): 0.78
- relative viability (HCC-44; first compound 0.6325 µM): 0.93
- relative viability (HCC-44; first compound 2 µM): 1.02
- relative viability (LU99A; first compound 0.02 µM): 1.1
- relative viability (LU99A; first compound 0.2 µM): 1
- relative viability (LU99A; first compound 0.6325 µM): 1.13
- relative viability (LU99A; first compound 2 µM): 0.942
- relative viability (NCI-H1650; first compound 0.02 µM): 0.179
- relative viability (NCI-H1650; first compound 0.2 µM): 0.192
- relative viability (NCI-H1650; first compound 0.6325 µM): 0.24
- relative viability (NCI-H1650; first compound 2 µM): 0.206
- relative viability (NCI-H1734; first compound 0.02 µM): 1.08
- relative viability (NCI-H1734; first compound 0.6325 µM): 0.891
- relative viability (NCI-H1734; first compound 2 µM): 0.842
- relative viability (NCI-H1755; first compound 0.02 µM): 1.02
- relative viability (NCI-H1755; first compound 0.2 µM): 0.792
- relative viability (NCI-H1755; first compound 0.6325 µM): 1.08
- relative viability (NCI-H1755; first compound 2 µM): 0.83
- relative viability (NCI-H1792; first compound 0.02 µM): 0.956
- relative viability (NCI-H1792; first compound 0.2 µM): 0.344
- relative viability (NCI-H1792; first compound 0.6325 µM): 1.06
- relative viability (NCI-H1792; first compound 2 µM): 0.914
- relative viability (NCI-H1993; first compound 0.02 µM): 1.18
- relative viability (NCI-H1993; first compound 0.2 µM): 0.559
- relative viability (NCI-H1993; first compound 2 µM): 0.67
- relative viability (NCI-H2405; first compound 0.02 µM): 1.03
- relative viability (NCI-H2405; first compound 0.2 µM): 0.749
- relative viability (NCI-H2405; first compound 0.6325 µM): 0.736
- relative viability (NCI-H2405; first compound 2 µM): 0.716
- relative viability (NCI-H460; first compound 0.02 µM): 1.05
- relative viability (NCI-H460; first compound 0.2 µM): 0.51
- relative viability (NCI-H460; first compound 0.6325 µM): 1.12
- relative viability (NCI-H460; first compound 2 µM): 1.03
- relative viability (NCI-H596; first compound 0.02 µM): 0.98
- relative viability (NCI-H596; first compound 0.2 µM): 0.999
- relative viability (NCI-H596; first compound 0.6325 µM): 1.01
- relative viability (NCI-H596; first compound 2 µM): 0.814
- relative viability (NCI-H647; first compound 0.02 µM): 0.993
- relative viability (NCI-H647; first compound 0.2 µM): 0.677
- relative viability (NCI-H647; first compound 0.6325 µM): 0.757
- relative viability (NCI-H647; first compound 2 µM): 0.641
- relative viability (RERF-LC-KJ; first compound 0.02 µM): 1.09
- relative viability (RERF-LC-KJ; first compound 0.2 µM): 1.23
- relative viability (RERF-LC-KJ; first compound 0.6325 µM): 0.993
- relative viability (RERF-LC-KJ; first compound 2 µM): 0.942

Compound: Nc1cccc2c1CN(C1CCC(=O)NC1=O)C2=O (stereo unspecified) [Lenalidomide] + CC(C)C[C@H](NC(=O)[C@H](Cc1ccccc1)NC(=O)c1cnccn1)B(O)O [Bortezomib] (partner 0.002 µM)
- relative viability (A-427; first compound 0.253 µM): 1.08
- relative viability (A-427; first compound 2.53 µM): 0.951
- relative viability (A-427; first compound 8 µM): 0.908
- relative viability (COR-L 105; first compound 0.253 µM): 0.792
- relative viability (COR-L 105; first compound 0.8 µM): 0.824
- relative viability (COR-L 105; first compound 2.53 µM): 0.863
- relative viability (COR-L 105; first compound 8 µM): 0.797
- relative viability (ChaGo-K-1; first compound 0.253 µM): 1.07
- relative viability (ChaGo-K-1; first compound 2.53 µM): 1
- relative viability (ChaGo-K-1; first compound 8 µM): 1.29
- relative viability (EKVX; first compound 0.253 µM): 1.04
- relative viability (EKVX; first compound 0.8 µM): 0.805
- relative viability (EKVX; first compound 2.53 µM): 1.17
- relative viability (EKVX; first compound 8 µM): 0.856
- relative viability (EMC-BAC-2; first compound 0.253 µM): 1.04
- relative viability (EMC-BAC-2; first compound 0.8 µM): 0.857
- relative viability (EMC-BAC-2; first compound 2.53 µM): 1.15
- relative viability (EMC-BAC-2; first compound 8 µM): 0.913
- relative viability (EPLC-272H; first compound 0.253 µM): 0.876
- relative viability (EPLC-272H; first compound 2.53 µM): 1.03
- relative viability (EPLC-272H; first compound 8 µM): 0.999
- relative viability (HARA; first compound 0.253 µM): 1.07
- relative viability (HARA; first compound 0.8 µM): 0.657
- relative viability (HARA; first compound 2.53 µM): 1.24
- relative viability (HARA; first compound 8 µM): 1.19
- relative viability (HCC-44; first compound 0.253 µM): 0.904
- relative viability (HCC-44; first compound 0.8 µM): 0.701
- relative viability (HCC-44; first compound 2.53 µM): 0.912
- relative viability (HCC-44; first compound 8 µM): 0.832
- relative viability (LU99A; first compound 0.253 µM): 1.06
- relative viability (LU99A; first compound 0.8 µM): 1.11
- relative viability (LU99A; first compound 2.53 µM): 1.05
- relative viability (LU99A; first compound 8 µM): 0.73
- relative viability (NCI-H1650; first compound 0.253 µM): 0.197
- relative viability (NCI-H1650; first compound 0.8 µM): 0.189
- relative viability (NCI-H1650; first compound 2.53 µM): 0.213
- relative viability (NCI-H1650; first compound 8 µM): 0.198
- relative viability (NCI-H1734; first compound 0.253 µM): 0.896
- relative viability (NCI-H1734; first compound 0.8 µM): 0.907
- relative viability (NCI-H1734; first compound 2.53 µM): 1.02
- relative viability (NCI-H1734; first compound 8 µM): 0.807
- relative viability (NCI-H1755; first compound 0.253 µM): 0.855
- relative viability (NCI-H1755; first compound 0.8 µM): 0.854
- relative viability (NCI-H1755; first compound 2.53 µM): 0.947
- relative viability (NCI-H1755; first compound 8 µM): 0.913
- relative viability (NCI-H1792; first compound 0.253 µM): 1
- relative viability (NCI-H1792; first compound 0.8 µM): 0.773
- relative viability (NCI-H1792; first compound 2.53 µM): 0.96
- relative viability (NCI-H1792; first compound 8 µM): 0.964
- relative viability (NCI-H1993; first compound 0.253 µM): 1.07
- relative viability (NCI-H1993; first compound 0.8 µM): 0.951
- relative viability (NCI-H1993; first compound 2.53 µM): 1.12
- relative viability (NCI-H1993; first compound 8 µM): 0.675
- relative viability (NCI-H2405; first compound 0.253 µM): 0.912
- relative viability (NCI-H2405; first compound 0.8 µM): 0.418
- relative viability (NCI-H2405; first compound 2.53 µM): 0.876
- relative viability (NCI-H2405; first compound 8 µM): 0.828
- relative viability (NCI-H460; first compound 0.253 µM): 1.16
- relative viability (NCI-H460; first compound 0.8 µM): 1.1
- relative viability (NCI-H460; first compound 2.53 µM): 1.7
- relative viability (NCI-H460; first compound 8 µM): 1.07
- relative viability (NCI-H596; first compound 0.253 µM): 0.933
- relative viability (NCI-H596; first compound 0.8 µM): 0.733
- relative viability (NCI-H596; first compound 2.53 µM): 1.39
- relative viability (NCI-H596; first compound 8 µM): 0.883
- relative viability (NCI-H647; first compound 0.253 µM): 0.88
- relative viability (NCI-H647; first compound 0.8 µM): 0.9
- relative viability (NCI-H647; first compound 2.53 µM): 1.16
- relative viability (NCI-H647; first compound 8 µM): 0.772
- relative viability (RERF-LC-KJ; first compound 0.253 µM): 1.13
- relative viability (RERF-LC-KJ; first compound 0.8 µM): 0.934
- relative viability (RERF-LC-KJ; first compound 2.53 µM): 1.09
- relative viability (RERF-LC-KJ; first compound 8 µM): 0.974
